Laboratory results: the RepoRT retention time repository

test: Waters ACQUITY UPLC BEH Shield RP18, 100 × 2.1 mm, 1.7 µm, 40 °C, 0.4 mL/min, estimated dead time 0.55 min; A: water + 0.1% formic acid; B: acetonitrile; gradient (min/%B) 0/2 10/18 15/28 22/40 32/67; settings: stereoisomer not certain

LC retention time [min] | SMILES
28.1 | CC(C)=CCc1c(O)cc2oc(-c3ccc(O)cc3)c(O)c(=O)c2c1O
24.9 | CC(C)=CCc1cc(-c2cc(=O)c3c(O)cc(O)cc3o2)cc(O)c1O
17.4 | CC1(C(=O)OC2OC(CO)C(O)C(O)C2O)CCC2(C)CCC3(C)C(=CC(=O)C4C5(C)CCC(OC6OC(C(=O)O)C(O)C(O)C6OC6OC(C(=O)O)C(O)C(O)C6O)C(C)(C)C5CCC43C)C2C1 (configuration not stated)
10.2 | O=C1CC(c2ccc(OC3OC(CO)C(O)C(O)C3OC3OCC(O)(CO)C3O)cc2)Oc2cc(O)ccc21 (configuration not stated)
14.5 | O=C(C=Cc1ccc(O)cc1)c1ccc(OC2OC(CO)C(O)C(O)C2O)cc1O (configuration not stated)
15.1 | COc1cc(O)c2c(=O)c(OC)c(-c3ccc(O)cc3)oc2c1
12.3 | COc1ccc(-c2coc3cc(OC4OC(CO)C(O)C(O)C4O)ccc3c2=O)cc1 (configuration not stated)
29.2 | CC1(C(=O)O)CCC2(C)CCC3(C)C(=CC(=O)C4C5(C)CCC(O)C(C)(C)C5CCC43C)C2C1 (configuration not stated)
14.3 | O=C(C=Cc1ccc(OC2OC(CO)C(O)C(O)C2O)cc1)c1ccc(O)cc1O (configuration not stated)
24.1 | COc1cc(O)c(-c2coc3cc(O)ccc3c2=O)c(OC)c1CC=C(C)C
19.8 | CC12CC(OC1=O)C1(C)CCC3(C)C(=CC(=O)C4C5(C)CCC(OC6OC(C(=O)O)C(O)C(O)C6OC6OC(C(=O)O)C(O)C(O)C6O)C(C)(C)C5CCC43C)C1C2 (configuration not stated)
4.34 | O=C(O)CC(C(=O)O)c1ccc(O)cc1 (configuration not stated)
14 | O=C(C=Cc1ccc(OC2OC(CO)C(O)C(O)C2OC2OCC(O)(CO)C2O)cc1)c1ccc(O)cc1O (configuration not stated)
12.2 | COc1ccc(-c2coc3cc(OC4OC(CO)C(O)C(O)C4OC4OCC(O)(CO)C4O)ccc3c2=O)cc1 (configuration not stated)
9.89 | O=C1CC(c2ccc(OC3OC(CO)C(O)C(O)C3O)cc2)Oc2cc(O)ccc21 (configuration not stated)
8.56 | O=c1cc(-c2ccc(O)cc2)oc2c(C3OCC(O)C(O)C3O)c(O)c(C3OC(CO)C(O)C(O)C3O)c(O)c12 (configuration not stated)

LC retention time [min] | SMILES
14.6 | O=C1CC(c2ccc(O)cc2)Oc2cc(O)ccc21 (configuration not stated)
28.7 | COc1c(CC=C(C)C)c(O)cc2c1CC(c1ccc(O)c(CC=C(C)C)c1O)CO2 (configuration not stated)
9.18 | O=C1CC(c2ccc(O)cc2)Oc2cc(OC3OC(CO)C(O)C(O)C3O)ccc21 (configuration not stated)
24.8 | COc1cc2oc(-c3ccc(O)c(CC=C(C)C)c3)c(O)c2cc1OC
15.1 | COc1ccc(-c2coc3cc(O)ccc3c2=O)cc1O
26.9 | CC1(C)C=Cc2c(ccc(-c3coc4cc(O)cc(O)c4c3=O)c2O)O1
17.8 | CC(=O)OC1CC(C)(C(=O)O)CC2C3=CC(=O)C4C5(C)CCC(OC6OC(C(=O)O)C(O)C(O)C6OC6OC(C(=O)O)C(O)C(O)C6O)C(C)(CO)C5CCC4(C)C3(C)CCC12C (configuration not stated)
27.2 | COc1c(CC=C(C)C)c(O)cc2oc(=O)c3c4ccc(O)cc4oc3c12
6.01 | O=C1CC(c2ccc(OC3OC(CO)C(O)C(O)C3O)cc2)Oc2cc(OC3OC(CO)C(O)C(O)C3O)ccc21 (configuration not stated)
26.3 | C=CC(C)(C)c1cc(C=CC(=O)c2ccc(O)cc2)c(OC)cc1O
22.3 | CC1(C(=O)O)CCC2(C)CCC3(C)C(=C2C1)C=CC1C2(C)CCC(OC4OC(C(=O)O)C(O)C(O)C4OC4OC(C(=O)O)C(O)C(O)C4O)C(C)(CO)C2CCC13C (configuration not stated)
16.8 | CC1(CO)CC(O)C2(C)CCC3(C)C(=CC(=O)C4C5(C)CCC(OC6OC(C(=O)O)C(O)C(O)C6OC6OC(C(=O)O)C(O)C(O)C6O)C(C)(C)C5CCC43C)C2C1 (configuration not stated)
26.1 | CC(C)=CCc1cc(-c2oc3cc(O)cc(O)c3c(=O)c2O)ccc1O
19 | COc1ccc(-c2coc3cc(O)ccc3c2=O)cc1
19.9 | COc1cc(O)cc2oc(=O)c(-c3ccc(O)cc3O)cc12
20.7 | CC1(C(=O)O)CCC2(C)CCC3(C)C(=CC(=O)C4C5(C)CCC(OC6OC(C(=O)O)C(O)C(O)C6OC6OC(C(=O)O)C(O)C(O)C6O)C(C)(CO)C5CCC43C)C2C1 (configuration not stated)
